The test system of data set [1] is mdx mice. As to the kind of experiment: mdx mouse model of muscular dystrophy, drug in rodent chow for 9 months, muscle and body weights. In kind it is in vivo. To be noted: female mdx mice. An excerpt: The mdx mouse is a genetic model of Duchenne and Becker muscular dystrophies, providing a model system of muscle degeneration with aberrant regeneration. In this model, a nonsense mutation in the dystrophin gene results in the absence of dystrophin from the sarcolemma, and subsequent muscle fiber necrosis. Conversely, mice deficient in plasminogen activator inhibitor-1 have improved skeletal muscle regeneration. It was hypothesized that a small molecule PAI-1 inhibitor, such as, for example {1-Benzyl-5-[4-(trifluoromethoxy)phenyl]-1H-indol-3-yl}(oxo)acetic acid could potentially produce beneficial effects on the skeletal muscle of mdx mice.
Female mdx mice were purchased from a commercial vendor, and divided into 2 groups of equal body weight. {1-Benzyl-5-[4-(trifluoromethoxy)phenyl]-1H-indol-3-yl}(oxo)acetic acid was formulated into rodent chow at a concentration of 1 mg of drug per 1 gram of food (1 mg/g), and this mixture was formed into food pellets. A standard, pelleted rodent chow was used as the control diet. One group of mice received the drug-containing diet, while the other group received the control diet ad libitum. Each diet was coded, and the animal technicians remained blinded to the composition of the diets throughout the study.
Eight mice received either the control or drug-containing diet for 9 months. At the end of the study, the mice were killed, and muscle and body weights were measured. There was no change in body weight between groups (28.1±0.45 g for drug-treated vs. 28.3±0.69 g for Control). […] Because muscular dystrophy is a wasting disease, changes in muscle weight are routinely expressed per unit of body weight in preclinical studies. Therefore, the individual weight of each gastrocnemius muscle (mg) was expressed relative to total body weight (g). […] In drug-treated mice, muscle weight per unit of body weight was 5.02±0.13 mg/g, while in mice on the control diet, this value was 4.56 mg/g±0.20 (p=0.07).

For orientation: melting point means the temperature of the solid-liquid transition. Take `Cn1cc(C(=O)C(=O)O)c2ccc(-c3ccc(OC(F)(F)F)cc3)cc21`: the melting point is 233 to 235 °C (dec.). With `CC(=O)c1ccc(-c2ccc3c(c2)c(C(=O)C(=O)O)cn3Cc2ccccc2)cc1`, the melting point is 213 to 214 °C (dec.). With `O=C(O)C(=O)c1cn(Cc2ccccc2)c2ccc(-c3ccc(OC(F)(F)F)cc3)cc12` [{1-Benzyl-5-[4-(trifluoromethoxy)phenyl]-1H-indol-3-yl}(oxo)acetic acid], the “difference in group means of gastrocnemius muscle weight, drug-treated vs control” value in data set [1] (drug in chow 1 mg/g) amounted to 8.6%. Besides, in data set [1] (drug in chow 1 mg/g ad libitum, p=0.07 vs control), the “muscle weight per unit of body weight (gastrocnemius)” value amounted to 5.02 ± 0.13 mg/g. This compound also gave a gastrocnemius muscle weight in data set [1] (drug in chow 1 mg/g ad libitum, p=0.11 vs control) of 141.0 ± 4.1 mg. With `Cc1ccc(Cn2cc(C(=O)C(=O)O)c3cc(-c4ccccc4)ccc32)cc1`, the melting point lay within 195 to 196 °C.

Source of the values: patent publication US20070203220A1, “Inhibitors Of PAI-1 For Treatment Of Muscular Conditions” (Wyeth, priority 2006, published 2007).
